According to article PMC9944328 (Nature Communications, 2023):
Where two headings read alike, the source gives them in different places.

Test system: SSTR2 mutants
Test: SSTRs Gi-mediated cAMP inhibition, GloSensor, HEK293, 5 μM forskolin, 15 min room temperature (SSTR2 mutants)
Assay type: cell-based, human
Protocol: The levels of the intracellular 3′, 5′-cyclic AMP (cAMP) were measured by the GloSensor cAMP assay (Promega) as described in the previous studies[28],[41] which has been widely used. The human full-length SSTRs and mutants were cloned into the pcDNA3.1+ vector with a HA signal sequence followed by a Flag tag at the N-terminus. HEK293 cells (ATCC, CRL-1573) were seeded into 6-well microplates at a density of 1.0 × 10^6 cells/well and cultured for 24 h at 37 °C with 5% CO2. Cells were then co-transfected with SSTR wild-type or mutants and GloSensor plasmids. After 24 h of transfection, the cells were dissociated with TrypLE™ Express Enzyme (1X) (Thermo Fisher Scientific) and collected by centrifugation at 500 × g for 5 min. Then the collected cells were suspended in Hank’s balanced salt solution [HBSS (Thermo Fisher Scientific)] supplemented with […] (YEASEN), and then the suspension cells were seeded into 96-well plates with 90 μl/well. After incubating at room temperature for 40 min, 5 μM forskolin and ligands diluted in HBSS were added to each well and the plates were incubated at room temperature for 15 min. […] were measured using the Synergy H1 microplate reader (BioTek) and the data presented are means of at least three independent experiments.

[1] = cAMP inhibition best-fit, F127A-1
[2] = cAMP inhibition best-fit, F127A-2
[3] = cAMP inhibition best-fit, F127A-3
[4] = cAMP inhibition best-fit, I130A-1
[5] = cAMP inhibition best-fit, I130A-2
[6] = cAMP inhibition best-fit, I130A-3
[7] = cAMP inhibition best-fit, Q102A-1
[8] = cAMP inhibition best-fit, Q102A-2
[9] = cAMP inhibition best-fit, Q102A-3
[10] = cAMP inhibition best-fit, V103A-1
[11] = cAMP inhibition best-fit, V103A-2
[12] = cAMP inhibition best-fit, V103A-3

## N#Cc1cccc(-c2ccc3ncc(-c4cc(F)cc(F)c4)c(N4CCC(N)CC4)c3c2)c1O [paltusotine]
Y302A-1 (run 1)
  LogEC50 (best-fit value), cAMP inhibition: -7.774
  Span (best-fit value), cAMP inhibition: 45.84
  Top (best-fit value), cAMP inhibition: 51.54
Y302A-2 (run 2)
  Bottom (best-fit value), cAMP inhibition: 6.053
  LogEC50 (best-fit value), cAMP inhibition: -7.903
  Span (best-fit value), cAMP inhibition: 53.55
  Top (best-fit value), cAMP inhibition: 59.6
Y302A-3 (run 3)
  Bottom (best-fit value), cAMP inhibition: 6.125
  LogEC50 (best-fit value), cAMP inhibition: -8.216
  Span (best-fit value), cAMP inhibition: 50.13
  Top (best-fit value), cAMP inhibition: 56.25
[1]
  Bottom: 3.363
  EC50: 0.994 nM
  LogEC50: -9.003
  Span: 99.71
  Top: 103.1
[2]
  Bottom: -15.5
  EC50: 0.816 nM
  LogEC50: -9.089
  Span: 125.3
  Top: 109.8
[3]
  Bottom: 3.745
  EC50: 0.665 nM
  LogEC50: -9.177
  Span: 105.4
  Top: 109.1
[4]
  Bottom: 11.53
  EC50: 17.8 nM
  LogEC50: -7.749
  Span: 105
  Top: 116.5
[5]
  Bottom: 16.26
  EC50: 15.1 nM
  LogEC50: -7.822
  Span: 108.4
  Top: 124.7
[6]
  Bottom: 6.76
  EC50: 23.9 nM
  LogEC50: -7.621
  Span: 101.4
  Top: 108.2
[7]
  EC50: 43.6 nM
  LogEC50: -7.36
  Span: 102.2
  Top: 104
[8]
  EC50: 28.2 nM
  LogEC50: -7.55
  Span: 100.8
  Top: 101.3
[9]
  EC50: 21.3 nM
  LogEC50: -7.671
  Span: 85.31
  Top: 86.48
[10]
  Bottom: 9.955
  EC50: 90.2 nM
  LogEC50: -7.045
  Span: 84.48
  Top: 94.43
[11]
  Bottom: -12.27
  EC50: 7.12 nM
  LogEC50: -8.147
  Span: 105.2
  Top: 92.96
[12]
  Bottom: 15.94
  EC50: 1.5 nM
  LogEC50: -8.823
  Span: 58.67
  Top: 74.61
read-out: EC50 (best-fit value), cAMP inhibition, D295A-1 (run 1)
  EC50: 16 nM
read-out: EC50 (best-fit value), cAMP inhibition, D295A-2 (run 2)
  EC50: 15.9 nM
read-out: EC50 (best-fit value), cAMP inhibition, D295A-3 (run 3)
  EC50: 18.1 nM
read-out: EC50 (best-fit value), cAMP inhibition, F272A-1 (run 1)
  EC50: 17.7 nM
read-out: EC50 (best-fit value), cAMP inhibition, F272A-2 (run 2)
  EC50: 26.7 nM
read-out: EC50 (best-fit value), cAMP inhibition, F272A-3 (run 3)
  EC50: 145 nM
read-out: EC50 (best-fit value), cAMP inhibition, F294A-1 (run 1)
  EC50: 3.57 nM
read-out: EC50 (best-fit value), cAMP inhibition, F294A-2 (run 2)
  EC50: 4.21 nM
read-out: EC50 (best-fit value), cAMP inhibition, F294A-3 (run 3)
  EC50: 0.15 nM
read-out: EC50 (best-fit value), cAMP inhibition, K291A-1 (run 1)
  EC50: 4.34 nM
read-out: EC50 (best-fit value), cAMP inhibition, K291A-2 (run 2)
  EC50: 1.48 nM
read-out: EC50 (best-fit value), cAMP inhibition, K291A-3 (run 3)
  EC50: 6.95 nM
read-out: EC50 (best-fit value), cAMP inhibition, N276A-1 (run 1)
  EC50: 0.993 nM
read-out: EC50 (best-fit value), cAMP inhibition, N276A-2 (run 2)
  EC50: 2.19 nM
read-out: EC50 (best-fit value), cAMP inhibition, N276A-3 (run 3)
  EC50: 1.77 nM
read-out: EC50 (best-fit value), cAMP inhibition, Y302A-1 (run 1)
  EC50: 16.8 nM
read-out: EC50 (best-fit value), cAMP inhibition, Y302A-2 (run 2)
  EC50: 12.5 nM
read-out: EC50 (best-fit value), cAMP inhibition, Y302A-3 (run 3)
  EC50: 6.08 nM
read-out: EC50 (best-fit value), F208A-1 (run 1)
  EC50: 14.9 nM
read-out: EC50 (best-fit value), F208A-2 (run 2)
  EC50: 98.5 nM
read-out: EC50 (best-fit value), F208A-3 (run 3)
  EC50: 79.3 nM
read-out: EC50 (best-fit value), F265A-1 (run 1)
  EC50: 11.3 nM
read-out: EC50 (best-fit value), F265A-2 (run 2)
  EC50: 14.7 nM
read-out: EC50 (best-fit value), F265A-3 (run 3)
  EC50: 9.82 nM
read-out: EC50 (best-fit value), P220A-1 (run 1)
  EC50: 3.5 nM
read-out: EC50 (best-fit value), P220A-2 (run 2)
  EC50: 3.09 nM
read-out: EC50 (best-fit value), P220A-3 (run 3)
  EC50: 3.08 nM
read-out: EC50 (best-fit value), W269A-1 (run 1)
  EC50: 0.601 nM
read-out: EC50 (best-fit value), W269A-2 (run 2)
  EC50: 0.503 nM
read-out: EC50 (best-fit value), W269A-3 (run 3)
  EC50: 0.604 nM
read-out: EC50 (best-fit value), Y205A-1 (run 1)
  EC50: 0.344 nM
read-out: EC50 (best-fit value), Y205A-2 (run 2)
  EC50: 0.915 nM
read-out: EC50 (best-fit value), Y205A-3 (run 3)
  EC50: 0.18 nM
